Measurements reported in BigSolDB 2.1.

COc1c2occc2c(OC)c2c(=O)cc(C)oc12
solubility (mole fraction)
Conditions	in DMSO	in ethanol	in isopropanol	in methanol	in n-butanol	in water
298.15 K	0.0128	0.00255	0.00195	0.00271	0.00355	1.33e-05
303.15 K	0.0131	0.00282	0.002	0.00272	0.00375	1.23e-05
308.15 K	0.0131	0.00298	0.00209	0.003	0.00372	1.88e-05
313.15 K	0.0132	0.00311	0.00228	0.00314	0.00399	1.88e-05
318.15 K	0.0141	0.00338	0.00233	0.00318	0.00435	3.69e-05
323.15 K	0.0152	0.00338	0.00253	0.00332	0.00529	9.02e-05

Conditions	solubility (mole fraction)
in PEG-200, 298.15 K	0.00171
in PEG-200, 303.15 K	0.00149
in PEG-200, 308.15 K	0.00173
in PEG-200, 313.15 K	0.00199
in PEG-200, 318.15 K	0.00202
in PEG-200, 323.15 K	0.00231
in PEG-400, 298.15 K	0.00438
in PEG-400, 303.15 K	0.00425
in PEG-400, 308.15 K	0.00448
in PEG-400, 313.15 K	0.00453
in PEG-400, 318.15 K	0.00448
in PEG-400, 323.15 K	0.00511
